Laboratory results reported in ChEMBL document CHEMBL1150544, “C-3-N-acyl analogs of 9(R)-dihydrotaxol: synthesis and structure activity relationships” (Bioorg Med Chem Lett, 1994).
In brackets after ≈: the same amount, converted by molar mass.

Experiments:
[1] = system: A549; test: In vitro cytotoxicity against A549-human lung carcinoma cells.; format: functional, cell-based
[2] = system: B16-F10; test: In vitro cytotoxicity against B16F10-mouse melanoma cells.; format: functional, cell-based
[3] = system: P388; test: In vitro cytotoxicity against P388-mouse leukemia cells.; format: functional, cell-based
[4] = system: HT-29; test: In vitro cytotoxicity against HT29-human colon adenocarcinoma cells.; format: functional, cell-based
[5] = Antitumor activity relative to taxol.; format: functional

Row | SMILES | IC50 [1] | IC50 [2] | IC50 [3] | IC50 [4] | Ratio [5]
1 | CC(=O)O[C@@H]1C2=C(C)[C@@H](OC(=O)[C@H](O)[C@@H](NC(=O)OCc3ccccc3)c3ccccc3)C[C@@](O)([C@@H](OC(=O)c3ccccc3)[C@@H]3[C@]4(OC(C)=O)CO[C@@H]4C[C@H](O)[C@@]3(C)[C@H]1O)C2(C)C | 0.031 µg/mL (≈ 0.035 µM) | 0.044 µg/mL (≈ 0.0497 µM) | 0.057 µg/mL (≈ 0.0643 µM) | 0.012 µg/mL (≈ 0.0135 µM) | –
2 | CCC(C)(C)OC(=O)N[C@@H](c1ccccc1)[C@@H](O)C(=O)O[C@H]1C[C@@]2(O)[C@@H](OC(=O)c3ccccc3)[C@@H]3[C@]4(OC(C)=O)CO[C@@H]4C[C@H](O)[C@@]3(C)[C@@H](O)[C@H](OC(C)=O)C(=C1C)C2(C)C | 0.001 µg/mL (≈ 0.00115 µM) | 0.0003 µg/mL (≈ 0.000346 µM) | 0.0046 µg/mL (≈ 0.00531 µM) | 0.00067 µg/mL (≈ 0.000774 µM) | 0.73
3 | CC(=O)O[C@@H]1C2=C(C)[C@@H](OC(=O)[C@H](O)[C@@H](NC(=O)OC(C)(C)C)c3ccccc3)C[C@@](O)([C@@H](OC(=O)c3ccccc3)[C@@H]3[C@]4(OC(C)=O)CO[C@@H]4C[C@H](O)[C@@]3(C)[C@H]1O)C2(C)C | 0.0003 µg/mL (≈ 0.000352 µM) | – | – | – | 0.87
4 | CC(=O)O[C@@H]1C2=C(C)[C@@H](OC(=O)[C@H](O)[C@@H](NC(=O)C(C)(C)C)c3ccccc3)C[C@@](O)([C@@H](OC(=O)c3ccccc3)[C@@H]3[C@]4(OC(C)=O)CO[C@@H]4C[C@H](O)[C@@]3(C)[C@H]1O)C2(C)C | 0.11 µg/mL (≈ 0.132 µM) | 0.035 µg/mL (≈ 0.0419 µM) | 0.083 µg/mL (≈ 0.0993 µM) | < 0.01 µg/mL | 2.36
5 | CC(=O)O[C@@H]1C2=C(C)[C@@H](OC(=O)[C@H](O)[C@@H](NC(=O)c3ccc(C)cc3)c3ccccc3)C[C@@](O)([C@@H](OC(=O)c3ccccc3)[C@@H]3[C@]4(OC(C)=O)CO[C@@H]4C[C@H](O)[C@@]3(C)[C@H]1O)C2(C)C | 0.043 µg/mL (≈ 0.0494 µM) | 0.025 µg/mL (≈ 0.0287 µM) | 0.063 µg/mL (≈ 0.0724 µM) | 0.012 µg/mL (≈ 0.0138 µM) | 0.75
6 | CC(=O)O[C@@H]1C2=C(C)[C@@H](OC(=O)[C@H](O)[C@@H](NC(=O)OCC(C)(C)C)c3ccccc3)C[C@@](O)([C@@H](OC(=O)c3ccccc3)[C@@H]3[C@]4(OC(C)=O)CO[C@@H]4C[C@H](O)[C@@]3(C)[C@H]1O)C2(C)C | 0.00065 µg/mL (≈ 0.000751 µM) | 0.0074 µg/mL (≈ 0.00855 µM) | 0.019 µg/mL (≈ 0.0219 µM) | 0.0015 µg/mL (≈ 0.00173 µM) | 0.82
7 | CCOC(=O)N[C@@H](c1ccccc1)[C@@H](O)C(=O)O[C@H]1C[C@@]2(O)[C@@H](OC(=O)c3ccccc3)[C@@H]3[C@]4(OC(C)=O)CO[C@@H]4C[C@H](O)[C@@]3(C)[C@@H](O)[C@H](OC(C)=O)C(=C1C)C2(C)C | 0.0057 µg/mL (≈ 0.00692 µM) | 0.018 µg/mL (≈ 0.0218 µM) | 0.043 µg/mL (≈ 0.0522 µM) | 0.005 µg/mL (≈ 0.00607 µM) | 0.82
8 | CC(=O)O[C@@H]1C2=C(C)[C@@H](OC(=O)[C@H](O)[C@@H](NC(=O)OC(C)C)c3ccccc3)C[C@@](O)([C@@H](OC(=O)c3ccccc3)[C@@H]3[C@]4(OC(C)=O)CO[C@@H]4C[C@H](O)[C@@]3(C)[C@H]1O)C2(C)C | 0.0012 µg/mL (≈ 0.00143 µM) | 0.0022 µg/mL (≈ 0.00263 µM) | 0.0092 µg/mL (≈ 0.011 µM) | 0.0008 µg/mL (≈ 0.000955 µM) | 0.75
9 | CC(=O)O[C@@H]1C2=C(C)[C@@H](OC(=O)[C@H](O)[C@@H](NC(=O)OCC(C)C)c3ccccc3)C[C@@](O)([C@@H](OC(=O)c3ccccc3)[C@@H]3[C@]4(OC(C)=O)CO[C@@H]4C[C@H](O)[C@@]3(C)[C@H]1O)C2(C)C | 0.0043 µg/mL (≈ 0.00505 µM) | 0.0069 µg/mL (≈ 0.0081 µM) | 0.028 µg/mL (≈ 0.0329 µM) | 0.0023 µg/mL (≈ 0.0027 µM) | 1.03
10 | CC(=O)O[C@@H]1C2=C(C)[C@@H](OC(=O)[C@H](O)[C@@H](NC(=O)NC(C)(C)C)c3ccccc3)C[C@@](O)([C@@H](OC(=O)c3ccccc3)[C@@H]3[C@]4(OC(C)=O)CO[C@@H]4C[C@H](O)[C@@]3(C)[C@H]1O)C2(C)C | 0.014 µg/mL (≈ 0.0165 µM) | 0.0046 µg/mL (≈ 0.00541 µM) | 0.017 µg/mL (≈ 0.02 µM) | 0.0056 µg/mL (≈ 0.00658 µM) | 1.06
11 | CC(=O)O[C@@H]1C2=C(C)[C@@H](OC(=O)[C@H](O)[C@@H](NC(=O)c3ccc(OCc4ccccc4)cc3)c3ccccc3)C[C@@](O)([C@@H](OC(=O)c3ccccc3)[C@@H]3[C@]4(OC(C)=O)CO[C@@H]4C[C@H](O)[C@@]3(C)[C@H]1O)C2(C)C | 0.019 µg/mL (≈ 0.0197 µM) | 0.025 µg/mL (≈ 0.026 µM) | 0.053 µg/mL (≈ 0.0551 µM) | 0.008 µg/mL (≈ 0.00832 µM) | 0.76
12 | CC(=O)O[C@@H]1C2=C(C)[C@@H](OC(=O)[C@H](O)[C@@H](NC(=O)CC(C)(C)C)c3ccccc3)C[C@@](O)([C@@H](OC(=O)c3ccccc3)[C@@H]3[C@]4(OC(C)=O)CO[C@@H]4C[C@H](O)[C@@]3(C)[C@H]1O)C2(C)C | 0.027 µg/mL (≈ 0.0318 µM) | 0.0056 µg/mL (≈ 0.00659 µM) | 0.052 µg/mL (≈ 0.0612 µM) | 0.009 µg/mL (≈ 0.0106 µM) | 1.03
13 | CC(=O)O[C@H]1C(=O)[C@@]2(C)[C@H]([C@H](OC(=O)c3ccccc3)[C@]3(O)C[C@H](OC(=O)[C@H](O)[C@@H](NC(=O)c4ccccc4)c4ccccc4)C(C)=C1C3(C)C)[C@]1(OC(C)=O)CO[C@@H]1C[C@@H]2O [PACLITAXEL] | – | 0.0041 µg/mL (≈ 0.0048 µM) | 0.046 µg/mL (≈ 0.0539 µM) | 0.0024 µg/mL (≈ 0.00281 µM) | –
14 | CC(=O)O[C@@H]1C2=C(C)[C@@H](OC(=O)[C@H](O)[C@@H](NC(=O)c3ccc(O)cc3)c3ccccc3)C[C@@](O)([C@@H](OC(=O)c3ccccc3)[C@@H]3[C@]4(OC(C)=O)CO[C@@H]4C[C@H](O)[C@@]3(C)[C@H]1O)C2(C)C | > 0.1 µg/mL | > 0.1 µg/mL | > 0.1 µg/mL | 0.067 µg/mL (≈ 0.0768 µM) | 1.07
15 | CC(=O)O[C@@H]1C2=C(C)[C@@H](OC(=O)[C@H](O)[C@@H](NC(=O)c3ccco3)c3ccccc3)C[C@@](O)([C@@H](OC(=O)c3ccccc3)[C@@H]3[C@]4(OC(C)=O)CO[C@@H]4C[C@H](O)[C@@]3(C)[C@H]1O)C2(C)C | 0.0072 µg/mL (≈ 0.00851 µM) | 0.012 µg/mL (≈ 0.0142 µM) | 0.034 µg/mL (≈ 0.0402 µM) | 0.0041 µg/mL (≈ 0.00485 µM) | 0.73
16 | CC(=O)O[C@@H]1C2=C(C)[C@@H](OC(=O)[C@H](O)[C@@H](NC(=O)OC34CC5CC(CC(C5)C3)C4)c3ccccc3)C[C@@](O)([C@@H](OC(=O)c3ccccc3)[C@@H]3[C@]4(OC(C)=O)CO[C@@H]4C[C@H](O)[C@@]3(C)[C@H]1O)C2(C)C | 0.0043 µg/mL (≈ 0.00462 µM) | 0.0048 µg/mL (≈ 0.00516 µM) | 0.01 µg/mL (≈ 0.0108 µM) | 0.0028 µg/mL (≈ 0.00301 µM) | 1.54
17 | CC(=O)N[C@@H](c1ccccc1)[C@@H](O)C(=O)O[C@H]1C[C@@]2(O)[C@@H](OC(=O)c3ccccc3)[C@@H]3[C@]4(OC(C)=O)CO[C@@H]4C[C@H](O)[C@@]3(C)[C@@H](O)[C@H](OC(C)=O)C(=C1C)C2(C)C | 2.1 µg/mL (≈ 2.65 µM) | 1.1 µg/mL (≈ 1.39 µM) | 2.02 µg/mL (≈ 2.54 µM) | 0.27 µg/mL (≈ 0.34 µM) | 3.17
